One block for each molecule: values may come before it.
What was measured:
[1] = system: T1, glycine receptors (GlyRs) of lateral habenula neurons; settings: 30 μM glycine; VH -60 mV; pH 7.4; 22-24 °C; positive modulator
T1 construct: gene Glra1

[2] = system: T2, GABAA receptors (GABAARs) of lateral habenula neurons; settings: 10 μM GABA, co-applied; VH -60 mV; pH 7.4; 22-24 °C; voltage-independent; extrapolated beyond tested 10.8-43.2 mM
T2 construct: gene Gabra1

[3] = system: T1, glycine receptors (GlyRs) of lateral habenula neurons; settings: VH -60 mV; pH 7.4; 22-24 °C; agonist
[4] = system: T1, glycine receptors (GlyRs) of lateral habenula neurons; test: whole-cell patch clamp, inhibition of glycine current; type: cell-based, Rattus norvegicus; settings: 500 μM glycine, co-applied; VH -60 mV; pH 7.4; 22-24 °C; antagonist

IC50 [2]: 94100 ± 29100 µM
SMILES: CCO [ethanol]
% of control at 43.2 mM [1]: 148 ± 14%

EC50 [3]: 83.3 µM
SMILES: NCC(=O)O [glycine]

SMILES: O=C1C[C@@H]2OCC=C3CN4CC[C@]56c7ccccc7N1[C@H]5[C@H]2[C@H]3C[C@H]46 [strychnine]
IC50 [4]: 0.22 µM
